Here are results for 26 molecules from US20080161289A1, “Fused Thiazole Derivatives Having Affinity for the Histamine H3 Receptor” (Glaxo Group Limited, priority 2005, published 2008).

T1 sequence (Q9Y5N1 whole entry): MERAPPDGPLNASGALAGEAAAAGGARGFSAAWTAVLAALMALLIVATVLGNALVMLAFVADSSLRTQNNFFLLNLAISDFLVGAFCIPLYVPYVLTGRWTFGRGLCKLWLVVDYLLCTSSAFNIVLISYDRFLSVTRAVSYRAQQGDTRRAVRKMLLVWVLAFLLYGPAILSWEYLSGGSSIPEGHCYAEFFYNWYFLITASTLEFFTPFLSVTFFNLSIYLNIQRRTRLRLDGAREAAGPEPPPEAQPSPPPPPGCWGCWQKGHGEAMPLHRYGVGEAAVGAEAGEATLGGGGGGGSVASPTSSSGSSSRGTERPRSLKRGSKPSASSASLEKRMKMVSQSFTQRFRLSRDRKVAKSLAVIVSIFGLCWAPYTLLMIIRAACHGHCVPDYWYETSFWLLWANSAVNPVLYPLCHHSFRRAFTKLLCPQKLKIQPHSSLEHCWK

The experiment concerns the target T1, histamine H3 receptors (Homo sapiens, UniProt Q9Y5N1).
T1 construct: expressed in transfected cells; host or cells: CHO K1 cells carrying pSwitch, transfected with pGeneH3, induced with mifepristone; clone 3H3; membrane preparation
Nature of the experiment: Histamine H3 functional antagonist assay ([35S]-GTPγS SPA on membranes from H3 cells). Type of experiment: biochemical. Particulars: hydrochloride salts tested; H3 functional antagonist assay using membrane prepared from cultured H3 cells; averages of a number of experiments; read-out: functional pKi (fpKi) (converted). An excerpt: A membrane preparation containing histamine H3 receptors may be prepared in accordance with the following procedures:
(i) Generation of Histamine H3 Cell Line
DNA encoding the human histamine H3 gene (Huvar, A. et al. (1999) Mol. Pharmacol. 55(6), 1101-1107) was cloned into a holding vector, pCDNA3.1 TOPO (InVitrogen) and its cDNA was isolated from this vector by restriction digestion of plasmid DNA with the enzymes BamHI and Not-1 and ligated into the inducible expression vector pGene (InVitrogen) digested with the same enzymes. The GeneSwitch™ system (a system where in transgene expression is switched off in the absence of an inducer and switched on in the presence of an inducer) was performed as described in U.S. Pat. Nos. 5,364,791; 5,874,534; and 5,935,934. Ligated DNA was transformed into competent DH5α E. coli host bacterial cells and plated onto Luria Broth (LB) agar containing Zeocin™ (an antibiotic which allows the selection of cells expressing the sh ble gene which is present on pGene and pSwitch) at 50 μg ml^−1. Colonies containing the re-ligated plasmid were identified by restriction analysis. DNA for transfection into mammalian cells was prepared from 250 ml cultures of the host bacterium containing the pGeneH3 plasmid and isolated using a DNA preparation kit (Qiagen Midi-Prep) as per manufacturers guidelines (Qiagen).
CHO K1 cells previously transfected with the pSwitch regulatory plasmid (InVitrogen) were seeded at 2×10e6 cells per T75 flask in Complete Medium, containing Hams F12 (GIBCOBRL, Life Technologies) medium supplemented with 10% v/v dialysed foetal bovine serum, L-glutamine, and hygromycin (100 μg ml^−1), 24 hours prior to use. Plasmid DNA was transfected into the cells using Lipofectamine plus according to the manufacturers guidelines (InVitrogen). 48 hours post transfection cells were placed into complete medium supplemented with 500 μg ml^−1 Zeocin™.
10-14 days post selection 10 nM Mifepristone (InVitrogen), was added to the culture medium to induce the expression of the receptor. 18 hours post induction cells were detached from the flask using ethylenediamine tetra-acetic acid (EDTA; 1:5000; InVitrogen), following several washes with phosphate buffered saline pH 7.4 and resuspended in Sorting Medium containing Minimum Essential Medium (MEM), without phenol red, and supplemented with Earles salts and 3% Foetal Clone II (Hyclone). Approximately 1×10e7 cells were examined for receptor expression by staining with a rabbit polyclonal antibody, 4a, raised against the N-terminal domain of the histamine H3 receptor, incubated on ice for 60 minutes, followed by two washes in sorting medium. Receptor bound antibody was detected by incubation of the cells for 60 minutes on ice with a goat anti rabbit antibody, conjugated with Alexa 488 fluorescence marker (Molecular Probes). Following two further washes with Sorting Medium, cells were filtered through a 50 μm Filcon™ (BD Biosciences) and then analysed on a FACS Vantage SE Flow Cytometer fitted with an Automatic Cell Deposition Unit. Control cells were non-induced cells treated in a similar manner. Positively stained cells were sorted as single cells into 96-well plates, containing Complete Medium containing 500 μg ml^−1 Zeocin™ and allowed to expand before reanalysis for receptor expression via antibody and ligand binding studies. One clone, 3H3, was selected for membrane preparation.
(ii) Membrane Preparation from Cultured Cells
All steps of the protocol are carried out at 4° C. and with pre-cooled reagents. The cell pellet is resuspended in 10 volumes of homogenisation buffer (50 mM N-2-hydroxyethylpiperazine-N′-2-ethanesulfonic acid (HEPES), 1 mM ethylenediamine tetra-acetic acid (EDTA), pH 7.4 with KOH, supplemented with 10e-6M leupeptin (acetyl-leucyl-leucyl-arginal; Sigma L2884), 25 μg/ml bacitracin (Sigma B0125), 1 mM phenylmethylsulfonyl fluoride (PMSF) and 2×10e-6M pepstain A (Sigma)). […]
(GTPγS resists hydrolysis and so accumulates on activated G proteins.)
As for `N#Cc1ccc(-c2nc3c(s2)CCN(C2CCC2)CC3)cn1` [Example E49, 5-(6-Cyclobutyl-5,6,7,8-tetrahydro-4H-[1,3]thiazolo[4,5-d]azepin-2-yl)-2-pyridinecarbonitrile], the Ki was less than 31.6 nM.

Consider `FC(F)(F)c1ccc(-c2nc3c(s2)CCN(C2CCC2)CC3)cc1` [Example E1, 6-Cyclobutyl-2-[4-(trifluoromethyl)phenyl]-5,6,7,8-tetrahydro-4H-[1,3]thiazolo[4,5-d]azepine], for which the Ki was less than 31.6 nM.

Take `CN1CCN(c2ccc(-c3nc4c(s3)CCN(C3CCCCC3)CC4)cc2)C1=O` [Example E30, 1-[4-(6-Cyclohexyl-5,6,7,8-tetrahydro-4H-[1,3]thiazolo[4,5-d]azepin-2-yl)phenyl]-3-methyl-2-imidazolidinone]: the Ki is less than 1.26 nM.

Turning to `O=C(c1cccc(Cl)c1)N1CCC(c2nc3c(s2)CCN(C2CCC2)CC3)CC1` [Example E81, 2-{1-[(3-Chlorophenyl)carbonyl]-4-piperidinyl}-6-cyclobutyl-5,6,7,8-tetrahydro-4H-[1,3]thiazolo[4,5-d]azepine], the Ki was less than 0.316 nM.

Consider `Cc1ccccc1NC(=O)N1CCC(c2nc3c(s2)CCN(C2CCC2)CC3)CC1` [Example E70, 4-(6-Cyclobutyl-5,6,7,8-tetrahydro-4H-[1,3]thiazolo[4,5-d]azepin-2-yl)-N-(2-methylphenyl)-1-piperidinecarboxamide], for which the Ki was less than 1.26 nM.

For the molecule `NC(=O)c1ccc(N2CCC(c3nc4c(s3)CCN(C3CCC3)CC4)CC2)cn1` [Example E22, 5-[4-(6-Cyclobutyl-5,6,7,8-tetrahydro-4H-[1,3]thiazolo[4,5-d]azepin-2-yl)-1-piperidinyl]-2-pyridinecarboxamide], the Ki is less than 0.316 nM.

Regarding `CN(C)c1ccc(-c2nc3c(s2)CCN(C2CCC2)CC3)cc1` [Example E116, 4-(6-Cyclobutyl-5,6,7,8-tetrahydro-4H-[1,3]thiazolo[4,5-d]azepin-2-yl)-N,N-dimethylaniline], the Ki is less than 1.26 nM.

With `c1ncc(-c2nc3c(s2)CCN(C2CCC2)CC3)cn1` [Example E58, 6-Cyclobutyl-2-(5-pyrimidinyl)-5,6,7,8-tetrahydro-4H-[1,3]thiazolo[4,5-d]azepine], the Ki is less than 31.6 nM.

On to `Cc1ccc(N2CCC(c3nc4c(s3)CCN(C3CCC3)CC4)CC2)cn1` [Example E19, 6-Cyclobutyl-2-[1-(6-methyl-3-pyridinyl)-4-piperidinyl]-5,6,7,8-tetrahydro-4H-[1,3]thiazolo[4,5-d]azepine], for which the Ki is less than 1.26 nM.

`Cc1cncc(C(=O)N2CCC(c3nc4c(s3)CCN(C3CCC3)CC4)CC2)c1` [Example E13, 6-Cyclobutyl-2-{1-[(5-methyl-3-pyridinyl)carbonyl]-4-piperidinyl}-5,6,7,8-tetrahydro-4H-[1,3]thiazolo[4,5-d]azepine]: the Ki was less than 0.316 nM.

As for `Cc1cccc(C(=O)N2CCC(c3nc4c(s3)CCN(C3CCC3)CC4)C2)n1` (centres unmarked) [Example E106, 6-Cyclobutyl-2-{1-[(6-methyl-2-pyridinyl)carbonyl]-3-pyrrolidinyl}-5,6,7,8-tetrahydro-4H-[1,3]thiazolo[4,5-d]azepine], the Ki was less than 31.6 nM.

On to `Cc1cn(C)nc1C(=O)N1CCC(c2nc3c(s2)CCN(C2CCC2)CC3)CC1` [Example E85, 6-Cyclobutyl-2-{1-[(1,4-dimethyl-1H-pyrazol-3-yl)carbonyl]-4-piperidinyl}-5,6,7,8-tetrahydro-4H-[1,3]thiazolo[4,5-d]azepine], for which the Ki is less than 1.26 nM.

Turning to `CC(C)N1CCc2nc(-c3ccc(N4CCN(C)C4=O)cc3)sc2CC1` [Example E29, 1-Methyl-3-{4-[6-(1-methylethyl)-5,6,7,8-tetrahydro-4H-[1,3]thiazolo[4,5-d]azepin-2-yl]phenyl}-2-imidazolidinone], the Ki was less than 1.26 nM.

As to `O=C(c1ccc(Cl)cc1)N1CCC(c2nc3c(s2)CCN(C2CCC2)CC3)CC1` [Example E80, 2-{1-[(4-Chlorophenyl)carbonyl]-4-piperidinyl}-6-cyclobutyl-5,6,7,8-tetrahydro-4H-[1,3]thiazolo[4,5-d]azepine], the Ki is less than 1.26 nM.

As for `Cc1cc(C(=O)N2CCC(c3nc4c(s3)CCN(C3CCC3)CC4)CC2)on1` [Example E18, 6-Cyclobutyl-2-{1-[(3-methyl-5-isoxazolyl)carbonyl]-4-piperidinyl}-5,6,7,8-tetrahydro-4H-[1,3]thiazolo[4,5-d]azepine], the Ki was less than 1.26 nM.

Turning to `c1cc(N2CCCC2)ncc1-c1nc2c(s1)CCN(C1CCC1)CC2` [Example E107, 6-Cyclobutyl-2-[6-(1-pyrrolidinyl)-3-pyridinyl]-5,6,7,8-tetrahydro-4H-[1,3]thiazolo[4,5-d]azepine], the Ki was greater than 7.94 nM.

In the case of `c1nc(N2CCCCC2)ncc1-c1nc2c(s1)CCN(C1CCC1)CC2` [Example E61, 6-Cyclobutyl-2-[2-(1-piperidinyl)-5-pyrimidinyl]-5,6,7,8-tetrahydro-4H-[1,3]thiazolo[4,5-d]azepine], the Ki is less than 31.6 nM.

`Cc1nccc(C(=O)N2CCC(c3nc4c(s3)CCN(C3CCC3)CC4)CC2)n1` [Example E95, 6-Cyclobutyl-2-{1-[(2-methyl-4-pyrimidinyl)carbonyl]-4-piperidinyl}-5,6,7,8-tetrahydro-4H-[1,3]thiazolo[4,5-d]azepine]: the Ki was less than 1.26 nM.

Consider `N#Cc1cccc(-c2nc3c(s2)CCN(C2CCC2)CC3)c1` [Example E112, 3-(6-Cyclobutyl-5,6,7,8-tetrahydro-4H-[1,3]thiazolo[4,5-d]azepin-2-yl)benzonitrile], for which the Ki is less than 31.6 nM.

As to `Cc1ccc(N2CCC(c3nc4c(s3)CCN(C3CCC3)CC4)C2)cn1` (racemic) [Example E38, (±)-6-Cyclobutyl-2-[1-(6-methyl-3-pyridinyl)-3-pyrrolidinyl]-5,6,7,8-tetrahydro-4H-[1,3]thiazolo[4,5-d]azepine], the Ki was less than 1.26 nM.

Turning to `Cc1cc(C(=O)N2CCC(c3nc4c(s3)CCN(C3CCC3)CC4)CC2)no1` [Example E15, 6-Cyclobutyl-2-{1-[(5-methyl-3-isoxazolyl)carbonyl]-4-piperidinyl}-5,6,7,8-tetrahydro-4H-[1,3]thiazolo[4,5-d]azepine], the Ki is less than 1.26 nM.

Regarding `O=C1OCCN1c1ccc(-c2nc3c(s2)CCN(C2CCC2)CC3)cc1` [Example E44, 3-[4-(6-Cyclobutyl-5,6,7,8-tetrahydro-4H-[1,3]thiazolo[4,5-d]azepin-2-yl)phenyl]-1,3-oxazolidin-2-one], the Ki is less than 0.316 nM.

Regarding `CN(C)C(=O)c1ccc(N2CCC(c3nc4c(s3)CCN(C3CCC3)CC4)CC2)cn1` [Example E24, 5-[4-(6-Cyclobutyl-5,6,7,8-tetrahydro-4H-[1,3]thiazolo[4,5-d]azepin-2-yl)-1-piperidinyl]-N,N-dimethyl-2-pyridinecarboxamide], the Ki is less than 1.26 nM.

`Cc1cccc(C(=O)N2CCC(c3nc4c(s3)CCN(C3CCC3)CC4)CC2)n1` [Example E11, 6-Cyclobutyl-2-{1-[(6-methyl-2-pyridinyl)carbonyl]-4-piperidinyl}-5,6,7,8-tetrahydro-4H-[1,3]thiazolo[4,5-d]azepine]: the Ki is less than 0.316 nM.

In the case of `CNC(=O)c1ccc(-c2nc3c(s2)CCN(C2CCC2)CC3)nc1` [Example E76, 6-(6-Cyclobutyl-5,6,7,8-tetrahydro-4H-[1,3]thiazolo[4,5-d]azepin-2-yl)-N-methyl-3-pyridinecarboxamide], the Ki is less than 31.6 nM.

For the molecule `N#Cc1cncc(N2CCC(c3nc4c(s3)CCN(C3CCC3)CC4)C2)c1` (centres unmarked) [Example E39, 5-[3-(6-Cyclobutyl-5,6,7,8-tetrahydro-4H-[1,3]thiazolo[4,5-d]azepin-2-yl)-1-pyrrolidinyl]-3-pyridinecarbonitrile], the Ki is less than 1.26 nM.
